Laboratory results published in patent US4514420A, “Antifibrotic agent” (Takeda Chemical Industries, Ltd., priority 1982, dated 1985).

What was measured:
[1] = system: Collagen biosynthesis; assay: Collagen biosynthesis inhibiting activity (collagen content of the uterus); format: in vivo, rats of SD strain; settings: female SD rats; for Collagen content of uterus / Body weight of rats: groups of 3; for Collagen content of uterus: control 1.64 ± 0.3; for Body weight of rats: control 73 ± 6
Experimental: (2) Collagen biosynthesis inhibiting activity
Basically in accordance with the method of R. A. Salvador et al. [Arch. Biochem. Biophys. 174, 382 (1976)], 0.2 mg/kg of each test compound was intraperitoneally administered to rats of SD strain (.female., 3 weeks old) once daily for 6 consecutive days and the collagen content of the uterus was compared with the control value.
*Rats were used in groups of 3. Initial body weights = 41 ± 2 ~

[2] = biological target: T1, Protocollagen proline hydroxylase (Gallus gallus, UniProt P16924); assay: Protocollagen proline hydroxylase-inhibiting activity; format: biochemical; settings: partially purified chick embryo enzyme, 100 μg as protein, substrate (Pro-Pro-Gly)5.4H2O; for inhibition at 20 µM: Concentration 20 μM
T1 construct: partially purified enzyme preparation derived from chick embryos; from tissue; host or cells: chick embryos
T1 sequence (P16924 1-516): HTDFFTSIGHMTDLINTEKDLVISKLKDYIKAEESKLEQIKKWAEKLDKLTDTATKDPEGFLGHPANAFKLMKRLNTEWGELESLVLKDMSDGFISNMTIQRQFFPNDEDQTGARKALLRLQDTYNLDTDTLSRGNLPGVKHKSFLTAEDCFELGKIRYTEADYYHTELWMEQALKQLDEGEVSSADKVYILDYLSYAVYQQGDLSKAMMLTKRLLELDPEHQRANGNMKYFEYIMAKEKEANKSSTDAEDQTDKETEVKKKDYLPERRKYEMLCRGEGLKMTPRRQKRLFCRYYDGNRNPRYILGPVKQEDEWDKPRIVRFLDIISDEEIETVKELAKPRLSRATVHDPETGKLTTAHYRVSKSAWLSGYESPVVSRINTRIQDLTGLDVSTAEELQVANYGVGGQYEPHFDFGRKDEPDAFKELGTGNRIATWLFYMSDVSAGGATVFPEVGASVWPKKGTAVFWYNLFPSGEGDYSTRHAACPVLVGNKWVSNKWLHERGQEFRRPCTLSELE
T1 sequence (P09102 23-515 partner): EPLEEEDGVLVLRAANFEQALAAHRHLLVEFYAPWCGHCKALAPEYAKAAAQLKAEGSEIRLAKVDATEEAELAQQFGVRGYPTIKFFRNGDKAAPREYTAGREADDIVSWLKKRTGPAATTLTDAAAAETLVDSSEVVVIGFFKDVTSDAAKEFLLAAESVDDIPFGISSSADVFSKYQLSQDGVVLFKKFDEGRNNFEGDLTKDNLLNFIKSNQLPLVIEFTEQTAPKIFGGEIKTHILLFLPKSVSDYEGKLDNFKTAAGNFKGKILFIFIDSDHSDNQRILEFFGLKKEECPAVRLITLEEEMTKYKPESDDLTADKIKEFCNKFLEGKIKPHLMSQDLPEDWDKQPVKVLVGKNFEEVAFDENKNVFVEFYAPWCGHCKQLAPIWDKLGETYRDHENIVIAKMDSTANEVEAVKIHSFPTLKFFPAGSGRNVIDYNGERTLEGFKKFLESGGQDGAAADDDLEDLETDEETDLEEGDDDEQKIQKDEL
Experimental: (1) Protocollagen proline hydroxylase-inhibiting activity
This inhibitory activity was assayed by the procedure of R. E. Rhoads et al. (Methods in Enzymology XVII B, 306 (1971)) using a partially purified enzyme preparation derived from chick embryos in accordance with the methods of K. I. Kivirriko et al. and J. Halme et al. (J. Biol. Chem. 242, 4007 (1967) and Biochem. Biophys. Acta 198, 460 (1967), and, as a substrate, (Pro-Pro-Gly)5.4H2 O (Protein Research Foundation, Osaka). In this assay, the partially purified enzyme preparation was used in the amount of 100 μg as protein. The results are shown in Table 1.

[3] = Toxicity, gastric gavage to rats in a 5-week regimen; format: in vivo; settings: 2500 mg/kg/day
Source text: The compound (I) is very low in toxicity.

[4] = 17β-Estradiol alone, 0.2 mg/kg intraperitoneally once daily for 6 consecutive days
[5] = given with 17β-Estradiol, 0.2 mg/kg of each test compound intraperitoneally once daily for 6 consecutive days

SMILES: C[C@]12CC[C@@H]3c4ccc(O)cc4CC[C@H]3[C@@H]1CC[C@@H]2O [17β-Estradiol, reference compound]
- Collagen content of uterus [1, 4]: 3.45 ± 0.11
- Body weight of rats [1, 4]: 73 ± 3 g

SMILES: COC1=C(OC)C(=O)C(CCCCO)=C(C)C1=O [A:CH2 n:3 R:H]
- inhibition at 25 µM ([2]; Concentration 25 μM): 68%

SMILES: COC1=C(OC)C(=O)C(CCCCCCCCCCO)=C(C)C1=O [A:CH2 n:9 R:H, 2,3-dimethoxy-5-methyl-6-(10'-hydroxydecyl)-1,4-benzoquinone]
- inhibition at 20 µM [2]: 37%
- Collagen content of uterus [1, 5]: 2.94 ± 0.28
- Body weight of rats [1, 5]: 69 ± 6 g
- Degree of inhibition ([1]; given with 17β-Estradiol, 0.2 mg/kg of each test compound intraperitoneally once daily for 6 consecutive days, formula in footnote ** (drawing 3)): 28
- Abnormalities in body weight, food intake, urinalysis and blood tests [3]: no abnormalities in body weight, food intake, urinalysis and blood tests

SMILES: COC(=O)CCCC1=C(C)C(=O)C(OC)=C(OC)C1=O [A:CO n:3 R:CH3]
- inhibition at 50 µM ([2]; Concentration 50 μM): 47%

SMILES: COC1=C(OC)C(=O)C(CCCC(=O)O)=C(C)C1=O [A:CO n:3 R:H]
- inhibition at 20 µM [2]: 57%

SMILES: COC1=C(OC)C(=O)C(CCCCCCCC(=O)O)=C(C)C1=O [A:CO n:7 R:H]
- inhibition at 20 µM [2]: 35%

SMILES: COC(=O)CCCCCCCCCC1=C(C)C(=O)C(OC)=C(OC)C1=O [A:CO n:9 R:CH3]
- inhibition at 20 µM [2]: 21%

SMILES: COC1=C(OC)C(=O)C(CCCCCCCCCC(=O)O)=C(C)C1=O [A:CO n:9 R:H]
- inhibition at 20 µM [2]: 31%
